Experimental data published in article PMC2785468, “Androgen Receptor Mutations Associated with Androgen Insensitivity Syndrome: A High Content Analysis Approach Leading to Personalized Medicine” (PLoS ONE, 2009).
Changes are numbered by the printed parent chain.

Columns and labels:
Assay type in all cases: cell-based
AR-F764L = biological target: T1, AR-F764L (Homo sapiens, UniProt P10275, F765L)
T1 construct: segments AR 624-919 (wild type or containing mutations F764L, R840C, and P766S); expressed in transfected cells; host or cells: HeLa, transient co-transfection
T1 sequence (P10275 624-919 F765L): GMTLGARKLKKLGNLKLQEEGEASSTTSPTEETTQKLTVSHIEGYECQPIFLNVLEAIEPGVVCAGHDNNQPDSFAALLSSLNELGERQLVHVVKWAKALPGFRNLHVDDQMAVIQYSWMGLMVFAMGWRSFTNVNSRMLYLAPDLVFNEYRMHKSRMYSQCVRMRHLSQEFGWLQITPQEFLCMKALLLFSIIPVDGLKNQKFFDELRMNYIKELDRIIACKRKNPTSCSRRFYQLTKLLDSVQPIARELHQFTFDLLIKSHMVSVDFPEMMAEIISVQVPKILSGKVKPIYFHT
T1 sequence (P10275 1-660 partner limits assumed): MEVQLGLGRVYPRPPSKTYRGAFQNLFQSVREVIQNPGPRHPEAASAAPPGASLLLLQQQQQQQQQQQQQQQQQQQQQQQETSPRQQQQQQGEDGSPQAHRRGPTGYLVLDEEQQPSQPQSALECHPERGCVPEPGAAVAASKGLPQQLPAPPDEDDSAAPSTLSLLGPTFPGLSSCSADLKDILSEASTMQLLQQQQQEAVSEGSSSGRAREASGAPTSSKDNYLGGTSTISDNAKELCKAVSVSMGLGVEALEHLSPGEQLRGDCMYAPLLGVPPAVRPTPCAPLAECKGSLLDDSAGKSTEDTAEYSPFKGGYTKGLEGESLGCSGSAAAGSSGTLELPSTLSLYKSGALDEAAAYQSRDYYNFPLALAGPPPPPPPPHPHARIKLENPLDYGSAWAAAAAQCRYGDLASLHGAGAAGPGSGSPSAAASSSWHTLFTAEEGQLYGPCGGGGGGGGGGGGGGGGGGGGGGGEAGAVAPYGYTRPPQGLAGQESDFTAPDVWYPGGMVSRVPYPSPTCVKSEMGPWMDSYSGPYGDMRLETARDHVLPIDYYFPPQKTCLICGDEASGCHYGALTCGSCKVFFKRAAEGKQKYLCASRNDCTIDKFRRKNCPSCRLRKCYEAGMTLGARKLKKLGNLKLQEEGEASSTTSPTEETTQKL
Procedure: (§1) An interaction between COOH terminal AF2 (activation function 2) and NH2 terminal sequence F^23XXLF^27 is an important step toward the activation of AR [30]. The NC-TDI was measured using the reagents of the CheckMate™/Flexi® Vector Mammalian Two-Hybrid System, Promega (Madison, WI). […] One day before transfection, 1.5×10^6 Hela cells were seeded into a 60 mm dish. […] After 12 hours of transfection, cells were trypsinized and equally seeded into nine wells of a 12 well plate, with one well treated with vehicle and others with various concentration of different ligand. After 24 h of treatment, luciferase activity was assayed with the Promega Dual Glo assay kit, using a luminometer (PerkinElmer). Data represent the average±SD of three independent experiments, are expressed as fold-induction compared with negative control, and represent the units of firefly luciferase corrected for the units of renilla luciferase detected in the same plate.
as §1, with “Figure 3 NH2-COOH-terminal domain” for “An”, “(NC-TDI) assay.” for “between COOH terminal AF2 (activation function 2) and NH2 terminal sequence F^23XXLF^27 is an important step toward the activation of AR [30]. The NC-TDI was measured using the reagents of the CheckMate™/Flexi® Vector Mammalian Two-Hybrid System, Promega (Madison, WI).”, “HeLa” for “Hela”, “c/w” for “compared with”

AR-R840C = biological target: T2, AR-R840C (Homo sapiens, UniProt P10275, R841C)
T2 construct: segments AR 624-919 (wild type or containing mutations F764L, R840C, and P766S); expressed in transfected cells; host or cells: HeLa, transient co-transfection
T2 sequence (P10275 624-919 R841C): T1 sequence (P10275 624-919 F765L) with L142F, R218C
T2 sequence (P10275 1-660 partner limits assumed): T1 sequence (P10275 1-660 partner limits assumed)
Procedure: as §1
as §1, with “Figure 3 NH2-COOH-terminal domain” for “An”, “(NC-TDI) assay.” for “between COOH terminal AF2 (activation function 2) and NH2 terminal sequence F^23XXLF^27 is an important step toward the activation of AR [30]. The NC-TDI was measured using the reagents of the CheckMate™/Flexi® Vector Mammalian Two-Hybrid System, Promega (Madison, WI).”, “HeLa” for “Hela”, “c/w” for “compared with”

wild type AR = biological target: T3, wild type AR (Homo sapiens, UniProt P10275); details: ligands at 0.2–200 nM, 24 h
T3 construct: segments AR 624-919 (wild type or containing mutations F764L, R840C, and P766S); expressed in transfected cells; host or cells: HeLa, transient co-transfection
T3 sequence (P10275 624-919): T1 sequence (P10275 624-919 F765L) with L142F
T3 sequence (P10275 1-660 partner limits assumed): T1 sequence (P10275 1-660 partner limits assumed)
Procedure: as §1
as §1, with “Figure 3 NH2-COOH-terminal domain” for “An”, “(NC-TDI) assay.” for “between COOH terminal AF2 (activation function 2) and NH2 terminal sequence F^23XXLF^27 is an important step toward the activation of AR [30]. The NC-TDI was measured using the reagents of the CheckMate™/Flexi® Vector Mammalian Two-Hybrid System, Promega (Madison, WI).”, “HeLa” for “Hela”, “c/w” for “compared with”

AR-P766S = biological target: T4, AR-P766S (Homo sapiens, UniProt P10275, P767S); details: doses of 200 nM, compared with wt AR at 0.2 nM
T4 construct: segments AR 624-919 (wild type or containing mutations F764L, R840C, and P766S); expressed in transfected cells; host or cells: HeLa, transient co-transfection
T4 sequence (P10275 624-919 P767S): T1 sequence (P10275 624-919 F765L) with L142F, P144S
T4 sequence (P10275 1-660 partner limits assumed): T1 sequence (P10275 1-660 partner limits assumed)
Procedure: as §1
as §1, with “Figure 3 NH2-COOH-terminal domain” for “An”, “(NC-TDI) assay.” for “between COOH terminal AF2 (activation function 2) and NH2 terminal sequence F^23XXLF^27 is an important step toward the activation of AR [30]. The NC-TDI was measured using the reagents of the CheckMate™/Flexi® Vector Mammalian Two-Hybrid System, Promega (Madison, WI).”, “HeLa” for “Hela”, “c/w” for “compared with”

## C[C@@H]1CC2=CC(=O)CC[C@@H]2[C@H]2CC[C@@]3(C)[C@@H](CC[C@]3(C)O)[C@@H]21 [Mb, Mibolerone]
AR-F764L; at 0.2 nM
  NC-TDI, % of wild type receptor: 10%
AR-F764L; at 200 nM
  NC-TDI response: 3.1 fold
AR-R840C
  concentration at which the NC-TDI response saturated: 2 nM
Wild type AR
  NC-TDI maximal response (luciferase activity): 7.1 fold increase
AR-P766S
  NC-TDI rescue (in words): rescue the NC-TDI response to the levels observed with wt AR
